In patent US20070088069A1, “Novel imidazoles” (Warner-Lambert Company LLC, priority 2005, published 2007):

Assays:
[1] = test system: Sterol Biosynthesis in L6 Rat Myoblast; experiment: Sterol biosynthesis in L6 rat myoblast (14C acetic acid into cholesterol); assay type: cell-based; conditions: 3 hours pre-incubation, 3 hours 14C acetic acid labeling
Method: L6 rat myoblast purchased from ATCC(CRL-1458) were grown in T-150 vented culture flasks and seeded on 12-well culture plates at a density of 60,000 cells per well. The cells were grown in DMEM, (Dulbecco's Modified Eagle Medium) (Gibco, #10567-014) containing 10% heat inactivated FBS (Fetal Bovine Serum) (Gibco # 10082-139) for 72 hours until reaching confluence. The cells were pre-incubated in media with compound and 0.2% DMSO (dimethyl sulfoxide) for 3 hours and then labeled by incubating in medium containing compound, 0.2% DMSO and 1 μCi/per mL of ^14C acetic acid for an additional 3 hours. After labeling, the cells were washed once with 1×PBS (Gibco #14190-144) then lysed overnight at 4° C. in buffer containing 10% KOH and 78% (vol.) ethanol.
Lipid ester bonds were hydrolyzed by saponification of the lysates at 60° C. for 2 hours. […] The amount of ^14C cholesterol was quantified by scintillation counting in a Trilux 1450 plate reader (Wallac). The IC50 values were calculated from % inhibitions relative to negative controls vs. compound concentration on Microsoft excel 2000 data analysis wizard using a sigmoid inhibition curve model with formula: y=Bmax(1−(x^n/K^n+x^n))+y2 Where K is the IC50 for the inhibition curve, X is inhibitor concentration, Y is the response being inhibited and Bmax+Y2 is the limiting response as X approaches zero.

[2] = biological target: T1, HMGCoA (3-Hydroxy-3-methylglutaryl CoA) Reductase (Rattus norvegicus, UniProt P51639); experiment: HMGCoA reductase assay with rat liver microsomes; assay type: biochemical; conditions: 14C-HMGCoA, 45 min at 37° C., read-out: IC50 in the in vitro HMGCoA reductase assay
T1 construct: from tissue; host or cells: liver microsomes of male Sprague-Dawley rats fed cholestyramine
T1 sequence (P51639 1-887): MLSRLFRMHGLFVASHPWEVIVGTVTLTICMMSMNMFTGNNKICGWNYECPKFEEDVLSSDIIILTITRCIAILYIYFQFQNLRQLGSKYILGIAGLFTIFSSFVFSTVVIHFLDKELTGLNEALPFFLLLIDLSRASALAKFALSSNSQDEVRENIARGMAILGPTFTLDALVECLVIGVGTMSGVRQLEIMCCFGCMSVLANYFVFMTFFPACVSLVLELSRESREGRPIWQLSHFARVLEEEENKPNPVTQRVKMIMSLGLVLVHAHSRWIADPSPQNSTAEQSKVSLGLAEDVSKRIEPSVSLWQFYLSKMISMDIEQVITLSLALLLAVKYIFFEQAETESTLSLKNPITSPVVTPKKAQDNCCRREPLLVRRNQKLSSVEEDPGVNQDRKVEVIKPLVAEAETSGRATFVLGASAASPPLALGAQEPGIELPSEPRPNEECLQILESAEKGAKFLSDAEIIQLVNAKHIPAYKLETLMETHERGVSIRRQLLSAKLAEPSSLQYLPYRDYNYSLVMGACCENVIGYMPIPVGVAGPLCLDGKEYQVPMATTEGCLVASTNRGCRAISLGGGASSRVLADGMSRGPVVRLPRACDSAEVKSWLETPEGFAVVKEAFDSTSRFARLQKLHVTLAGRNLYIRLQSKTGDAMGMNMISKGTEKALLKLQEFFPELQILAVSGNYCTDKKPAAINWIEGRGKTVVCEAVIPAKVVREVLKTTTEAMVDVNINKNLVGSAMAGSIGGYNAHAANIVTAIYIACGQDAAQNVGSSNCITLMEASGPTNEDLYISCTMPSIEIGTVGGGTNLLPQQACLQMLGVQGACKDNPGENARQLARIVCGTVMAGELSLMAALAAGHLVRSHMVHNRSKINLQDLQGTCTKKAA
Method: Male Charles River Sprague-Dawley rats were fed with 2.5% cholestyramine in rat chow diets for 5 days before sacrificing. Livers were minced and homogenized in a sucrose homogenizing solution in an ice bath 10 times. Homogenates were diluted into a final volume of 200 mL, and centrifuged 15 min. with a Sorvall Centrifuge at 5° C., 10,000 rpm (12,000×G). The upper fat layer was removed and the supernatant decanted into fresh tubes. This step was repeated one more time before transferring the supernatant into ultracentrifuge tubes and centrifuged at 36,000 rpm (105,000×G) for an hour at 5° C. The resulting supernatant was discarded and the pellet was added to total of 15 mL 0.2 M KH2PO4. Pellets were homogenized gently by hand about 10 times. Samples were pooled and diluted into total of 60 mL buffer. The protein concentration of the homogenate was determined by the […] using a BCA (Bicinchoninic acid), kit from Pierce Chemical Company. 1 mL aliquots of microsomes were kept frozen in liquid nitrogen.
[3-^14C]-HMGCoA (57.0 mCi/mmol) was purchased from Amersham Biosciences, UK. […] Scintillation cocktail (Ultima-Flo-M) was added into each well and plates counted on a Trilux Microbeta Counter. The IC50 values were calculated with GraphPad software (Prism). […]

[3] = test system: Sterol Biosynthesis in Rat Hepatocytes; experiment: Sterol biosynthesis in rat hepatocytes (14C acetic acid into cholesterol); assay type: cell-based; conditions: Hepatocyte, 4 hrs pre-incubation, 4 hrs 14C acetic acid labeling, read-out: IC50 in the cell assay (sterol biosynthesis in rat hepatocytes)
Method: Frozen rat hepatocytes purchased from XenoTech (cat# N400572) were seeded on 6-well collagen I coated plates at a density of 10^5 cells/per well. The cells were grown in DMEM, (Dulbecco's Modified Eagle Medium) (Gibco, #11054-020) containing 10% FBS (Fetal Bovine Serum) and 10 mM HEPES, (N-2-hydroxyethyl-piperazine-N^1-2-ethane sulfonic acid) (Gibco # 15630-080) for 24 hrs. The cells were pre-incubated with compounds for 4 hrs and then labeled by incubating in medium containing 1 μCi/per mL of ^14C acetic acid for an additional 4 hrs. After labeling, the cells were washed twice with 5 mM MOPS, (3-[N-morpholino]propane sulfonic acid) solution containing 150 mM NaCl and 1 mM EDTA and collected in the lysis buffer containing 10% KOH and 80% (vol.) ethanol.
In order to separate labeled cholesterol from labeled non-cholesterol lipids, the cells lysates were subject to saponification at 60° C. for 2 hrs. The lysates were then combined with 0.5 volume of H2O and 2 volumes of hexane, followed by 30 minutes of vigorous shaking. After the separation of two phases, the upper-phase solution was collected and combined with 5 volumes of scintillation cocktail. The amount of ^14C cholesterol was quantified by liquid scintillation counting. The IC50 values were calculated with GraphPad software (Prism 3.03).

IC50 [2] [nM]	SMILES	IC50 [1] [nM]	IC50 [3] [nM]
–	C[C@@H](NC(=O)c1nc(-c2ccc(F)cc2)n(CC[C@@H](O)C[C@@H](O)CC(=O)O)c1C1CC1)c1ccccc1 [Example 1, Sodium: (3R,5R)-7-[5-Cyclopropyl-2-(4-fluoro-phenyl)-4-((R)-1-Phenyl-ethylcarbamoyl)-imidazol-1-yl]-3,5-dihydroxy-heptanoate]	449	–
36.8	C[C@H](c1ccccc1)N(C)C(=O)c1nc(-c2ccc(F)cc2)n(CC[C@@H](O)C[C@@H](O)CC(=O)O)c1C1CC1 [Example 2, Sodium; (3R,5R)-7-{5-Cyclopropyl-2-(4-fluoro-phenyl)-4-[methyl-((R)-1-phenyl-ethyl)-carbamoyl]-imidazol-1-yl}-3,5-dihydroxy-heptanoate]	–	0.27
